{"source": "the NIST ThermoML archive (doi:10.1021/je900259b)", "key": {"[1]": {"details": "Liquid; for mass density: 298.15 K, 101.33 kPa, Vibrating tube method; for vapor or sublimation pressure: Closed cell (Static) method; for Normal boiling temperature: Ebulliometric method (Recirculating still)"}, "[2]": {"assay": "refractive index (Na D-line) (dimensionless)", "details": "298.15 K; 101.33 kPa; Liquid; Standard Abbe refractometry"}}, "note": "Numbers after ± are expanded uncertainties."}
{"compound": "COCCO", "note": "[2-methoxyethan-1-ol]", "values": [{"measurement": "mass density", "setting": "[1]", "result": "960.02 ± 0.06", "unit": "kg/m3"}, {"measurement": "vapor or sublimation pressure", "setting": "[1]; 345.94 K", "result": "14.98 ± 0.2", "unit": "kPa"}, {"measurement": "vapor or sublimation pressure", "setting": "[1]; 349.54 K", "result": "17.51 ± 0.2", "unit": "kPa"}, {"measurement": "vapor or sublimation pressure", "setting": "[1]; 352.72 K", "result": "20.02 ± 0.2", "unit": "kPa"}, {"measurement": "vapor or sublimation pressure", "setting": "[1]; 355.49 K", "result": "22.45 ± 0.2", "unit": "kPa"}, {"measurement": "vapor or sublimation pressure", "setting": "[1]; 358.12 K", "result": "25.02 ± 0.2", "unit": "kPa"}, {"measurement": "vapor or sublimation pressure", "setting": "[1]; 360.51 K", "result": "27.53 ± 0.21", "unit": "kPa"}, {"measurement": "vapor or sublimation pressure", "setting": "[1]; 362.72 K", "result": "29.98 ± 0.21", "unit": "kPa"}, {"measurement": "vapor or sublimation pressure", "setting": "[1]; 364.76 K", "result": "32.52 ± 0.21", "unit": "kPa"}, {"measurement": "vapor or sublimation pressure", "setting": "[1]; 366.62 K", "result": "34.91 ± 0.21", "unit": "kPa"}, {"measurement": "vapor or sublimation pressure", "setting": "[1]; 368.51 K", "result": "37.49 ± 0.21", "unit": "kPa"}, {"measurement": "vapor or sublimation pressure", "setting": "[1]; 370.14 K", "result": "39.92 ± 0.21", "unit": "kPa"}, {"measurement": "vapor or sublimation pressure", "setting": "[1]; 371.85 K", "result": "42.51 ± 0.21", "unit": "kPa"}, {"measurement": "vapor or sublimation pressure", "setting": "[1]; 373.35 K", "result": "44.91 ± 0.21", "unit": "kPa"}, {"measurement": "vapor or sublimation pressure", "setting": "[1]; 374.89 K", "result": "47.49 ± 0.21", "unit": "kPa"}, {"measurement": "vapor or sublimation pressure", "setting": "[1]; 376.28 K", "result": "49.96 ± 0.21", "unit": "kPa"}, {"measurement": "vapor or sublimation pressure", "setting": "[1]; 377.65 K", "result": "52.42 ± 0.22", "unit": "kPa"}, {"measurement": "vapor or sublimation pressure", "setting": "[1]; 378.98 K", "result": "54.96 ± 0.22", "unit": "kPa"}, {"measurement": "vapor or sublimation pressure", "setting": "[1]; 380.23 K", "result": "57.48 ± 0.22", "unit": "kPa"}, {"measurement": "vapor or sublimation pressure", "setting": "[1]; 381.44 K", "result": "59.94 ± 0.22", "unit": "kPa"}, {"measurement": "vapor or sublimation pressure", "setting": "[1]; 382.64 K", "result": "62.46 ± 0.22", "unit": "kPa"}, {"measurement": "vapor or sublimation pressure", "setting": "[1]; 383.74 K", "result": "64.87 ± 0.22", "unit": "kPa"}, {"measurement": "vapor or sublimation pressure", "setting": "[1]; 384.89 K", "result": "67.49 ± 0.23", "unit": "kPa"}, {"measurement": "vapor or sublimation pressure", "setting": "[1]; 385.95 K", "result": "69.92 ± 0.23", "unit": "kPa"}, {"measurement": "vapor or sublimation pressure", "setting": "[1]; 387.02 K", "result": "72.45 ± 0.23", "unit": "kPa"}, {"measurement": "vapor or sublimation pressure", "setting": "[1]; 388.02 K", "result": "74.99 ± 0.23", "unit": "kPa"}, {"measurement": "vapor or sublimation pressure", "setting": "[1]; 388.98 K", "result": "77.41 ± 0.23", "unit": "kPa"}, {"measurement": "vapor or sublimation pressure", "setting": "[1]; 389.94 K", "result": "79.86 ± 0.23", "unit": "kPa"}, {"measurement": "vapor or sublimation pressure", "setting": "[1]; 390.92 K", "result": "82.45 ± 0.24", "unit": "kPa"}, {"measurement": "vapor or sublimation pressure", "setting": "[1]; 391.85 K", "result": "84.96 ± 0.24", "unit": "kPa"}, {"measurement": "vapor or sublimation pressure", "setting": "[1]; 392.74 K", "result": "87.49 ± 0.24", "unit": "kPa"}, {"measurement": "vapor or sublimation pressure", "setting": "[1]; 393.61 K", "result": "89.96 ± 0.24", "unit": "kPa"}, {"measurement": "vapor or sublimation pressure", "setting": "[1]; 394.47 K", "result": "92.48 ± 0.24", "unit": "kPa"}, {"measurement": "vapor or sublimation pressure", "setting": "[1]; 395.32 K", "result": "94.94 ± 0.25", "unit": "kPa"}, {"measurement": "vapor or sublimation pressure", "setting": "[1]; 396.12 K", "result": "97.48 ± 0.25", "unit": "kPa"}, {"measurement": "vapor or sublimation pressure", "setting": "[1]; 396.96 K", "result": "100.03 ± 0.25", "unit": "kPa"}, {"measurement": "vapor or sublimation pressure", "setting": "[1]; 397.37 K", "result": "101.3 ± 0.3", "unit": "kPa"}, {"measurement": "refractive index", "setting": "[2]", "result": "1.4006 ± 0.0005"}]}
{"compound": "C1CCCCC1", "note": "[cyclohexane]", "values": [{"measurement": "mass density", "setting": "[1]", "result": "773.82 ± 0.13", "unit": "kg/m3"}, {"measurement": "Normal boiling temperature", "setting": "[1]", "result": "80.58 ± 0.2", "unit": "°C"}, {"measurement": "refractive index", "setting": "[2]", "result": "1.4238 ± 0.0005"}]}
{"compound": "C1=CCCCC1", "note": "[cyclohexene]", "values": [{"measurement": "mass density", "setting": "[1]", "result": "805.69 ± 0.14", "unit": "kg/m3"}, {"measurement": "Normal boiling temperature", "setting": "[1]", "result": "82.82 ± 0.2", "unit": "°C"}, {"measurement": "refractive index", "setting": "[2]", "result": "1.4444 ± 0.0005"}]}
